These results are taken from patent US20240270740A1, “INHIBITORS OF CYCLIC GMP-AMP SYNTHASE AND USES THEREOF” (Ventus Therapeutics U.S., Inc., priority 2022, published 2024).

This experiment deals with hcGAS (Homo sapiens, UniProt Q8N884). Nature of the experiment: hcGAS Kinase-Glo assay (ATP depletion). The note with it: 40 nM hcGAS, 100 μM ATP, 100 μM GTP, 25 nM dsDNA, 3 h incubation. The class given is biochemical. The method, then: cGAS catalyzes the cyclization of ATP and GTP to produce cGAMP, which is the activating ligand of STING. Human cGAS (hcGAS) inhibition can thus be quantified by measuring how much cGAMP is formed either indirectly, by monitoring ATP-depletion as in the hcGAS Kinase-Glo assay (as described below), or directly, such as using the hcGAS LCMS assay (as described below).
hcGAS, sequence (Q8N884 whole entry): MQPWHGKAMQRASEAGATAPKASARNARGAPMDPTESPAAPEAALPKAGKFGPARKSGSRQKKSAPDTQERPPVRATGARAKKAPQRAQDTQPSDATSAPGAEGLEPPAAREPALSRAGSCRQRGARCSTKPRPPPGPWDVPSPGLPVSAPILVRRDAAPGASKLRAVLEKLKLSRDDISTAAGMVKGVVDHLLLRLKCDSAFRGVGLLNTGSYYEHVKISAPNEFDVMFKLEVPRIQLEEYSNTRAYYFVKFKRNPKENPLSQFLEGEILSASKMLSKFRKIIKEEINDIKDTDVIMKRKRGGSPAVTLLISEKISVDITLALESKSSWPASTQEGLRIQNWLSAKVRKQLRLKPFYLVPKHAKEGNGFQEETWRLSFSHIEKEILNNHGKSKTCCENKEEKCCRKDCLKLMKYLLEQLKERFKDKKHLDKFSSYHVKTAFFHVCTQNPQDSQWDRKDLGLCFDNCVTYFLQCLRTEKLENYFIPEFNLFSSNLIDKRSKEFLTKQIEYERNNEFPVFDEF
(i) hcGAS Kinase-Glo Assay
Compounds were tested for their human-cGAS […] inhibition activity using the methodology reported in Lama et al., “Development of human cGAS-specific small molecule inhibitors for repression of dsDNA-triggered interferon expression”, Nature Communications 10, Article number: 2261 (2019), with slight changes to some conditions as shown in Table B.
The results of the assay, expressed in IC50 values, are reported in Table D with the following designations: A represents an IC50 value<0.01 μM; B represents an IC50 value≥0.01 μM and <0.03 μM; C represents an IC50 value≥0.03 μM and <0.1 μM; D represents an IC50 value≥0.1.
For orientation: Kinase-Glo measures the ATP left after a reaction by luminescence.
As for `COc1c(NC23CC(C#N)(C2)C3)cc(C(=O)Nc2nnc(-n3nccc3C)s2)oc1=O` [Compound 45, 4-((3-cyanobicyclo[1.1.1]pentan-1-yl)amino)-3-methoxy-N-(5-(5-methyl-1H-pyrazol-1-yl)-1,3,4-thiadiazol-2-yl)-2-oxo-2H-pyran-6-carboxamide], the IC50 (usually the concentration that inhibits the measured activity by half) lay in the range of 0.01 to 0.03 µM.
Next, `COc1c(N2CCOCC2)cc(C(=O)Nc2nnc(-n3nccc3C)s2)oc1=O` [Compound 186, 3-methoxy-N-(5-(5-methyl-1H-pyrazol-1-yl)-1,3,4-thiadiazol-2-yl)-4-morpholino-2-oxo-2H-pyran-6-carboxamide]: 0.03 to 0.1 µM; `COc1c(N2CCC[C@H]2CO)cc(C(=O)Nc2nnc(-n3nccc3C)s2)oc1=O` [Compound 40, (S)-4-(2-(hydroxymethyl)pyrrolidin-1-yl)-3-methoxy-N-(5-(5-methyl-1H-pyrazol-1-yl)-1,3,4-thiadiazol-2-yl)-2-oxo-2H-pyran-6-carboxamide]: 0.01 to 0.03 µM; `COc1c(N[C@H]2C[C@@H](O)C2)cc(C(=O)Nc2nnc(-n3nccc3C)s2)oc1=O` [Compound 65, 4-(((1,3-cis)-3-hydroxycyclobutyl)amino)-3-methoxy-N-(5-(5-methyl-1H-pyrazol-1-yl)-1,3,4-thiadiazol-2-yl)-2-oxo-2H-pyran-6-carboxamide]: 0.03 to 0.1 µM.
As for `COc1c(N2CCC(CO)CC2)cc(C(=O)Nc2nnc(-n3nccc3C)s2)oc1=O` [Compound 12, 4-(4-(hydroxymethyl)piperidin-1-yl)-3-methoxy-N-(5-(5-methyl-1H-pyrazol-1-yl)-1,3,4-thiadiazol-2-yl)-2-oxo-2H-pyran-6-carboxamide], the figure is 0.01 to 0.03 µM; as for `COc1c(N2CCC(OC)CC2)cc(C(=O)Nc2nnc(-n3nccc3C)s2)oc1=O` [Compound 19, 3-methoxy-4-(4-methoxypiperidin-1-yl)-N-(5-(5-methyl-1H-pyrazol-1-yl)-1,3,4-thiadiazol-2-yl)-2-oxo-2H-pyran-6-carboxamide], 0.01 to 0.03 µM.
As to `COc1c(N[C@H]2CCC[C@@H]2O)cc(C(=O)Nc2nnc(-n3nccc3C)s2)oc1=O` (racemic) [Rac-15, 4-(((1S,2S)-2-hydroxycyclopentyl)amino)-3-methoxy-N-(5-(5-methyl-1H-pyrazol-1-yl)-1,3,4-thiadiazol-2-yl)-2-oxo-2H-pyran-6-carboxamide], the 50% inhibitory concentration (IC50) was 0.03 to 0.1 µM.
In turn, `COc1c(NCC(F)F)cc(C(=O)Nc2nnc(-n3nccc3C)s2)oc1=O` [Compound 89, 4-((2,2-difluoroethyl)amino)-3-methoxy-N-(5-(5-methyl-1H-pyrazol-1-yl)-1,3,4-thiadiazol-2-yl)-2-oxo-2H-pyran-6-carboxamide] gave an IC50 of 0.01 to 0.03 µM.
`COc1c(NCCO)cc(C(=O)Nc2nnc(-c3sccc3Cl)s2)oc1=O` [Compound 147, N-[5-(3-chlorothiophen-2-yl)-1,3,4-thiadiazol-2-yl]-4-[(2-hydroxyethyl)amino]-5-methoxy-6-oxopyran-2-carboxamide] had an IC50 of no less than 0.1 µM.
Next, `COCCNc1cc(C(=O)Nc2nnc(-n3ncc(F)c3Cl)s2)oc(=O)c1OC` [Compound 134, N-(5-(5-chloro-4-fluoro-1H-pyrazol-1-yl)-1,3,4-thiadiazol-2-yl)-5-methoxy-4-(2-methoxyethylamino)-6-oxo-6H-pyran-2-carboxamide]: 0.03 to 0.1 µM; `COc1c(NC23CC(C(F)F)(C2)C3)cc(C(=O)Nc2nnc(-n3nccc3C)s2)oc1=O` [Compound 115, 4-((3-(difluoromethyl)bicyclo[1.1.1]pentan-1-yl)amino)-3-methoxy-N-(5-(5-methyl-1H-pyrazol-1-yl)-1,3,4-thiadiazol-2-yl)-2-oxo-2H-pyran-6-carboxamide]: 0.01 to 0.03 µM; `COc1c(N[C@H]2C[C@H](O)C2)cc(C(=O)Nc2nnc(-n3nccc3C)s2)oc1=O` [Compound 16, 4-(((1,3-trans)-3-hydroxycyclobutyl)amino)-3-methoxy-N-(5-(5-methyl-1H-pyrazol-1-yl)-1,3,4-thiadiazol-2-yl)-2-oxo-2H-pyran-6-carboxamide]: 0.03 to 0.1 µM.
Next, `COc1c(N[C@H]2CC[C@H](O)CC2)cc(C(=O)Nc2nnc(-n3nccc3C)s2)oc1=O` [Compound 217]: 0.01 to 0.03 µM.
Next, `COCCCNc1cc(C(=O)Nc2nnc(-n3nccc3C)s2)oc(=O)c1OC` [Compound 32, 5-methoxy-4-(3-methoxypropylamino)-N-(5-(5-methyl-1H-pyrazol-1-yl)-1,3,4-thiadiazol-2-yl)-6-oxo-6H-pyran-2-carboxamide]: 0.03 to 0.1 µM.
Compound `COCCNc1cc(C(=O)Nc2nnc(-c3sncc3Cl)s2)oc(=O)c1OC` [Compound 139, N-(5-(4-chloroisothiazol-5-yl)-1,3,4-thiadiazol-2-yl)-3-methoxy-4-((2-methoxyethyl)amino)-2-oxo-2H-pyran-6-carboxamide] came in with an IC50 of 0.03 to 0.1 µM.
Next, `COC[C@@H]1CCCN1c1cc(C(=O)Nc2nnc(-n3nccc3C)s2)oc(=O)c1OC` [Compound 39, (S)-3-methoxy-4-(2-(methoxymethyl)pyrrolidin-1-yl)-N-(5-(5-methyl-1H-pyrazol-1-yl)-1,3,4-thiadiazol-2-yl)-2-oxo-2H-pyran-6-carboxamide]: 0.01 to 0.03 µM.
As for `COCCNc1cc(C(=O)Nc2nnc(-n3nccc3Cl)s2)oc(=O)c1OC` [Compound 148, N-[5-(5-chloropyrazol-1-yl)-1,3,4-thiadiazol-2-yl]-5-methoxy-4-[(2-methoxyethyl)amino]-6-oxopyran-2-carboxamide], the figure is no less than 0.1 µM; as for `COc1c(N[C@H](C)CO)cc(C(=O)Nc2nnc(-n3nccc3C)s2)oc1=O` [Compound 25, (R)-4-((1-hydroxypropan-2-yl)amino)-3-methoxy-N-(5-(5-methyl-1H-pyrazol-1-yl)-1,3,4-thiadiazol-2-yl)-2-oxo-2H-pyran-6-carboxamide], 0.03 to 0.1 µM; as for `COc1c(N[C@H]2COC[C@H]2O)cc(C(=O)Nc2nnc(-n3nccc3C)s2)oc1=O` [Compound 113, 4-(((3S,4S)-4-hydroxytetrahydrofuran-3-yl)amino)-3-methoxy-N-(5-(5-methyl-1H-pyrazol-1-yl)-1,3,4-thiadiazol-2-yl)-2-oxo-2H-pyran-6-carboxamide], 0.01 to 0.03 µM.
Regarding `COc1c(NC2CC2)cc(C(=O)Nc2nnc(-n3nccc3C)s2)oc1=O` [Compound 180, 4-(cyclopropylamino)-5-methoxy-N-[5-(5-methylpyrazol-1-yl)-1,3,4-thiadiazol-2-yl]-6-oxopyran-2-carboxamide], the 50% inhibitory concentration (IC50) lay within 0.03 to 0.1 µM.
Next, `CNCCNc1cc(C(=O)Nc2nnc(-n3nccc3C)s2)oc(=O)c1OC` [Compound 204, 3-methoxy-N-(5-(5-methyl-1H-pyrazol-1-yl)-1,3,4-thiadiazol-2-yl)-4-((2-(methylamino)ethyl)amino)-2-oxo-2H-pyran-6-carboxamide]: no less than 0.1 µM.
Next, `COCCNc1cc(C(=O)Nc2nnc(-c3c(C)csc3C#N)s2)oc(=O)c1OC` [Compound 137, N-(5-(2-cyano-4-methylthiophen-3-yl)-1,3,4-thiadiazol-2-yl)-3-methoxy-4-((2-methoxyethyl)amino)-2-oxo-2H-pyran-6-carboxamide]: no less than 0.1 µM.
In turn, `COc1c(N2CCC(O)CC2)cc(C(=O)Nc2nnc(-n3nccc3C)s2)oc1=O` [Compound 46, 4-(4-hydroxypiperidin-1-yl)-3-methoxy-N-(5-(5-methyl-1H-pyrazol-1-yl)-1,3,4-thiadiazol-2-yl)-2-oxo-2H-pyran-6-carboxamide] showed an IC50 of 0.01 to 0.03 µM.
